Measured values from patent US11512069B2, “TLR7/8 antagonists and uses thereof” (Merck Patent GmbH, priority 2016, dated 2022).

biological target: T1, TLR7 (Homo sapiens, UniProt Q9NYK1); test: HEK Cell Assay (TLR7/NFKb HEK reporter cells, Steady-Glo); type: cell-based; conditions: compound 30 min, then R*48 agonist 5 hours, Steady-Glo readout, read-out: Potency
T1 construct: expressed in transfected cells; host or cells: HEK cells carrying TLR7 and an NF-kB reporter read with Steady-Glo
T1 sequence (Q9NYK1 27-1049): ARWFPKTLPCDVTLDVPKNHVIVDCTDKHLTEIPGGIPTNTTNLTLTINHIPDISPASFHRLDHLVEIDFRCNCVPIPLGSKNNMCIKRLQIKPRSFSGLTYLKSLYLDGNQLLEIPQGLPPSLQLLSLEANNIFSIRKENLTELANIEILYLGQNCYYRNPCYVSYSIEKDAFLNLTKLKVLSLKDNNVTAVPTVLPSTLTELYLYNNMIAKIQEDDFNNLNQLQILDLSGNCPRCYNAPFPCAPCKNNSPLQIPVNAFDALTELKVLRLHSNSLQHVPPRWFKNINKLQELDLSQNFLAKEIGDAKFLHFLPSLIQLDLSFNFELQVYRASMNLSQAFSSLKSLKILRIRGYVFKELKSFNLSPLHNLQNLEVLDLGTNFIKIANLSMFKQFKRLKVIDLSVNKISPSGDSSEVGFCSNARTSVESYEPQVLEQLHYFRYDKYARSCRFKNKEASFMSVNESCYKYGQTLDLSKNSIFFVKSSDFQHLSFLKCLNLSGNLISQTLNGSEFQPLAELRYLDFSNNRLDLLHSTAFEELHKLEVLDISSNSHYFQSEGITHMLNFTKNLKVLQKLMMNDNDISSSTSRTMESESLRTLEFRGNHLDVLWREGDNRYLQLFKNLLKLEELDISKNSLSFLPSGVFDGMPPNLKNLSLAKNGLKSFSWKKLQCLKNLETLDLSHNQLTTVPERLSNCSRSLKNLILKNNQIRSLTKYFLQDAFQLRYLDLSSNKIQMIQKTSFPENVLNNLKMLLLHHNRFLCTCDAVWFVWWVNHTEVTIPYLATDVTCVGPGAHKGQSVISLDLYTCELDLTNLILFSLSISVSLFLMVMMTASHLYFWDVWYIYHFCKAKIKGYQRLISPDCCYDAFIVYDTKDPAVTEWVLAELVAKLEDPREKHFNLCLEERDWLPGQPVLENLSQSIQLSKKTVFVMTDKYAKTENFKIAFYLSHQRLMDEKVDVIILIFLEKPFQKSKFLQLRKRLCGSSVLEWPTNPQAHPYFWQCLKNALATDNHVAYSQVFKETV
In short: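 TLR7/NF-κB HEK reporter cells cultured 24 h, then pre-incubated 30 min with compound before adding R*48 agonist. Luciferase read by Steady-Glo luminescence after 5 h.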

IC50	SMILES
< 1 µM	C[C@@H]1C[C@H](c2ccc(C#N)c3ncccc23)CN(C(=O)NC2CCN(C)CC2)C1 [Compound 113, (3R,5R)-3-(8-Cyano-quinolin-5-yl)-5-methyl-piperidine-1-carboxylic acid (1-methyl-piperidin-4-yl)-amid]
1 to 20 µM	C[C@@H]1C[C@@H](c2cccc3ncccc23)CN(C(=O)NC2CCN(C)CC2)C1 [Compound 114, (3R,5S)-3-Methyl-5-quinolin-5-yl-piperidine-1-carboxylic acid (1-methyl-piperidin-4-yl)-amide]
1 to 20 µM	C[C@@H]1C[C@H](c2cccc3ncccc23)CN(C(=O)NC2CCN(C)CC2)C1 [Compound 115, (3R,5R)-3-Methyl-5-quinolin-5-yl-piperidine-1-carboxylic acid (1-methyl-piperidin-4-yl)-amide]
1 to 20 µM	C[C@@H]1C[C@H](c2ccc(C#N)c3ncccc23)CN(C(=O)CN2CCC3(CC2)CNC3)C1 [Compound 117, 5-[(3R,5R)-1-(2-2,7-Diaza-spiro[3.5]non-7-yl-acetyl)-5-methyl-piperidin-3-yl]-quinoline-8-carbonitrile]
1 to 20 µM	C[C@@H]1C[C@H](c2ccc(C#N)c3ncccc23)CN(C(N)=O)C1 [Compound 118, (3R,5R)-3-(8-Cyano-quinolin-5-yl)-5-methyl-piperidine-1-carboxylic acid amide]
1 to 20 µM	C[C@@H]1C[C@H](c2ccc(C#N)c3ncccc23)CN(C(=N)N)C1 [Compound 119, (3R,5R)-3-(8-Cyano-quinolin-5-yl)-5-methyl-piperidine-1-carboxamidine]
< 1 µM	C[C@H]1C[C@@H](N)C[C@@H](c2ccc(C#N)c3nccnc23)C1 [Compound 121, 8-[(1S,3R,5R)-3-amino-5-methylcyclohexyl]quinoxaline-5-carbonitrile]
1 to 20 µM	C[C@@H]1C[C@H](N)C[C@H](c2ccc(C#N)c3nccnc23)C1 [Compound 122, 8-((1R,3S,5S)-3-amino-5-methylcyclohexyl)quinoxaline-5-carbonitrile]
< 1 µM	C[C@H]1C[C@@H](N)C[C@H](c2ccc(C#N)c3nccnc23)C1 [Compound 123, 8-[(1R,3R,5R)-3-amino-5-methylcyclohexyl]quinoxaline-5-carbonitrile]
> 20 µM	C[C@@H]1C[C@H](N)C[C@@H](c2ccc(C#N)c3nccnc23)C1 [Compound 124, 8-((1S,3S,5S)-3-amino-5-methylcyclohexyl)quinoxaline-5-carbonitrile]
< 1 µM	CC(C)[C@H](O)C(=O)N[C@@H]1C[C@H](C)C[C@H](c2ccc(C#N)c3nccnc23)C1 [Compound 125, (S)—N-((1R,3S,5R)-3-(8-cyanoquinoxalin-5-yl)-5-methylcyclohexyl)-2-hydroxy-3-methylbutanamide]
1 to 20 µM	CC(C)[C@H](O)C(=O)N[C@H]1C[C@@H](C)C[C@@H](c2ccc(C#N)c3nccnc23)C1 [Compound 126, (S)—N-((1S,3R,5S)-3-(8-cyanoquinoxalin-5-yl)-5-methylcyclohexyl)-2-hydroxy-3-methylbutanamide]
> 20 µM	CC(C)[C@H](O)C(=O)N[C@@H]1C[C@H](C)C[C@@H](c2ccc(C#N)c3nccnc23)C1 [Compound 127, (S)—N-((1R,3R,5R)-3-(8-cyanoquinoxalin-5-yl)-5-methylcyclohexyl)-2-hydroxy-3-methylbutanamide]
1 to 20 µM	CC(C)[C@H](O)C(=O)N[C@H]1C[C@@H](C)C[C@H](c2ccc(C#N)c3nccnc23)C1 [Compound 128, (S)—N-((1S,3S,5S)-3-(8-cyanoquinoxalin-5-yl)-5-methylcyclohexyl)-2-hydroxy-3-methylbutanamide]
1 to 20 µM	C[C@H]1C[C@@H](N)C[C@@H](c2ccc(C(F)(F)F)c3ncccc23)C1 [Compound 135, (1R,3R,5S)-3-methyl-5-(8-(trifluoromethyl)quinolin-5-yl)cyclohexanamine]
< 1 µM	C[C@@H]1C[C@H](N)C[C@H](c2ccc(C(F)(F)F)c3ncccc23)C1 [Compound 136, (1S,3S,5R)-3-methyl-5-(8-(trifluoromethyl)quinolin-5-yl)cyclohexanamine]

IC50	SMILES
1 to 20 µM	C[C@H]1C[C@@H](N)C[C@H](c2ccc(C(F)(F)F)c3ncccc23)C1 [Compound 137, (1R,3R,5R)-3-methyl-5-(8-(trifluoromethyl)quinolin-5-yl)cyclohexanamine]
< 1 µM	C[C@@H]1C[C@H](N)C[C@@H](c2ccc(C(F)(F)F)c3ncccc23)C1 [Compound 138, (1S,3S,5S)-3-methyl-5-(8-(trifluoromethyl)quinolin-5-yl)cyclohexanamine]
< 1 µM	C[C@H]1C[C@@H](N)C[C@@H](c2ccc(C(F)(F)F)c3nccnc23)C1 [Compound 139, (1R,3R,5S)-3-methyl-5-(8-(trifluoromethyl)quinoxalin-5-yl)cyclohexanamine]
1 to 20 µM	C[C@H]1C[C@@H](N)C[C@H](c2ccc(C(F)(F)F)c3nccnc23)C1 [Compound 140, (1R,3R,5R)-3-methyl-5-(8-(trifluoromethyl)quinoxalin-5-yl)cyclohexanamine]
< 1 µM	C[C@@H]1C[C@H](N)C[C@@H](c2ccc(C(F)(F)F)c3nccnc23)C1 [Compound 141, (1S,3S,5S)-3-methyl-5-(8-(trifluoromethyl)quinoxalin-5-yl)cyclohexanamine]
< 1 µM	C[C@@H]1C[C@H](N)C[C@H](c2ccc(C(F)(F)F)c3nccnc23)C1 [Compound 142, (1S,3S,5R)-3-methyl-5-(8-(trifluoromethyl)quinoxalin-5-yl)cyclohexanamine]
> 20 µM	COCCN[C@@H]1C[C@H](C)C[C@H](c2ccc(C(F)(F)F)c3nccnc23)C1 [Compound 147, (1R,3R,5S)—N-(2-methoxyethyl)-3-methyl-5-(8-(trifluoromethyl)quinoxalin-5-yl)cyclohexanamine]
1 to 20 µM	COCCN[C@H]1C[C@@H](C)C[C@@H](c2ccc(C(F)(F)F)c3nccnc23)C1 [Compound 148, (1S,3S,5R)—N-(2-methoxyethyl)-3-methyl-5-(8-(trifluoromethyl)quinoxalin-5-yl)cyclohexanamine]
1 to 20 µM	COCCN[C@@H]1C[C@H](C)C[C@@H](c2ccc(C(F)(F)F)c3nccnc23)C1 [Compound 149, (1R,3R,5R)—N-(2-methoxyethyl)-3-methyl-5-(8-(trifluoromethyl)quinoxalin-5-yl)cyclohexanamine]
> 20 µM	COCCN[C@H]1C[C@@H](C)C[C@H](c2ccc(C(F)(F)F)c3nccnc23)C1 [Compound 150, (1S,3S,5S)—N-(2-methoxyethyl)-3-methyl-5-(8-(trifluoromethyl)quinoxalin-5-yl)cyclohexanamine]
> 20 µM	COCCN[C@@H]1C[C@H](C)C[C@H](c2ccc(C(F)(F)F)c3ncccc23)C1 [Compound 152, (1R,3R,5S)—N-(2-methoxyethyl)-3-methyl-5-(8-(trifluoromethyl)quinolin-5-yl)cyclohexanamine]
1 to 20 µM	COCCN[C@H]1C[C@@H](C)C[C@@H](c2ccc(C(F)(F)F)c3ncccc23)C1 [Compound 153, (1S,3S,5R)—N-(2-methoxyethyl)-3-methyl-5-(8-(trifluoromethyl)quinolin-5-yl)cyclohexanamine]
< 1 µM	C[C@H]1C[C@@H](NC(=O)[C@@H](O)C(C)(C)C)C[C@@H](c2ccc(C(F)(F)F)c3nccnc23)C1 [Compound 154, (S)-2-hydroxy-3,3-dimethyl-N-((1R,3R,5S)-3-methyl-5-(8-(trifluoromethyl)quinoxalin-5-yl)cyclohexyl)butanamide]
1 to 20 µM	C[C@@H]1C[C@H](NC(=O)[C@@H](O)C(C)(C)C)C[C@H](c2ccc(C(F)(F)F)c3nccnc23)C1 [Compound 155, (S)-2-hydroxy-3,3-dimethyl-N-((1S,3S,5R)-3-methyl-5-(8-(trifluoromethyl)quinoxalin-5-yl)cyclohexyl)butanamide]
> 20 µM	COCCN[C@@H]1C[C@H](C)C[C@H](c2ccc(F)c3ncccc23)C1 [Compound 160, (cis-1,3,5)-3-(8-fluoroquinolin-5-yl)-N-(2-methoxyethyl)-5-methylcyclohexan-1-amine]
